According to PubChem BioAssay AID489020 (Sanford-Burnham Center for Chemical Genomics, 2010):

Tested on: HEK-293T NF-kB-Luc, TNFa-induced, luminescence, 14 h
Experiment: inhibitors of TNFa-induced NF-kB reporter, dose response, counter-screen for BCR/TCR NF-kB inhibitor project, cell-based, HEK-293T NF-kB-Luc, luminescence, hits from both screens (AID 489020);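 further: TNF-alpha stimulus at 0.1 ng/mL added with the seeded cells; selectivity counterscreen for hits from B- and T-cell receptor NF-kB screens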

Compound: C[C@@H]1C[C@@H]2O[C@H]2/C=C\C=C\C(=O)Cc2c(Cl)c(O)cc(O)c2C(=O)O1
- IC50: 7670 nM

Compound: O=S(=O)(NCC1CCCO1)c1ccc(-c2ccc(S(=O)(=O)NCC3CCCO3)cc2)cc1 (stereo not drawn)
- IC50: 320 nM

Compound: COc1cc(NC(=O)COc2cc(O)c3c(c2)OC(C)(C)CC3=O)cc(OC)c1OC
- IC50: 380 nM
